Like-named read-outs stand apart in the source and are kept apart here.

Broadly, the Ki is a measure of affinity in units of concentration, obtained from inhibition or displacement. For orientation: IC50 means the midpoint of a concentration-inhibition curve.

On the set-up of series [1]: method as in PMID 25469771, PMID 21050441, PMID 21856155. As to conditions: percentage of unmodified drug, human liver microsomes, 37 °C, 60 min; cited from earlier work.
The nature of series [2]: Entrapment efficiency by HPLC-UV-MS after disruption of nanoparticles. As to conditions: compound encapsulated in albumin nanoparticles. Type of series: physicochemical. Here is the method:
The albumin nanoparticles were prepared by mixing 100 μL of compound solution in EtOH (1 mg/mL) with 900 μL of HSA solution in PBS (pH 7.4, 25 mM) (5 mg/mL)[52]. Cysteine was added up to a final concentration of 5 mg/mL, and the resulting solution was kept at 37 °C, for 45 min. The excess of cysteine was eliminated by dialysis using a cellulose membrane (capacity 60 mL/ft, cut-off 14 kDa, diameter 16 mm, width 25mm). D,L-glyceraldehyde was added to this solution, to a final concentration of 5 μM[53]. The sample was then filtered through a nylon syringe filter with pores of 0.2 μm (Acrodisc 25 mm Syringe Filter) to obtain a sterile solution of the drug-albumin nanoparticles. The concentration of the compound in the final sample was determined by HPLC-UV-MS (HPLC-UV-MS method in the supporting material), after denaturation of the protein by acetonitrile and centrifugation (4500 rpm, 15 min, 4 °C).
The method developed by A.D. Bangham, namely thin layer evaporation, was used for the preparation of LP-1, LP-2, LP-3 and LP-4. Lipids DPPC, Chol and MPEG-2000-DPPE Na (molar ratio 20:10:1) were dissolved in a mixture of CHCl3:MeOH = 3:1 (3 mL, round-bottomed flask). A 1 mM solution of each compound (1, 2, 3, 4) in CHCl3:MeOH = 3:1 was prepared. […] The drug concentration was determined after disruption of liposomes by treatment with ethanol at 40 °C (1:1 = v/v). The compound was extracted and quantified by HPLC-UV-MS (HPLC-UV-MS method in the supporting material). […]
E.E.%c NDd NDd NDd NDd NDd NDd NDd NDd NDd NDd NDd aCalculated on the basis of the total amount of compound dissolved in the organic solvent; bat 37 °C; c at 45°C. dND: compound not detected after filtration 0.2 µm syringe filter. […]
The percentage of entrapment efficacy was calculated with the following equation: […]
where, Fi is the concentration of compound determined in the nano-preparation (evaluated by HPLC-UV-MS, after disruption of nanoparticles) and Ft is the theoretical final concentration (Calculated on the basis of the total amount of compound dissolved in the organic solvent). […]

The target in series [3] is Src. Further details: method as in PMID 25469771, PMID 21050441, PMID 21856155. As to conditions: cited from earlier work.
The test system of series [4] is SH-SY5Y NB cells. The series can be described thus: Antiproliferative activity / cytotoxicity, Trypan blue assay. Conditions: Homo sapiens. Type of series: cell-based. How it is done:
In vitro experiments were carried out using the human NB cell line SH-SY5Y. Cells were purchased from American Type Culture Collection (ATCC, Manassas, VA, USA) and were cultured in DMEM/F12 1:1 medium supplemented with 10% FBS, 2 mM L-glutamine and 10000 units/mL Penicillin/Streptomycin at 37 °C in 5% CO2 atmosphere. In order to determine the antiproliferative effect of drugs (1–4) and nanosystems, SH-SY5Y cells were seeded at 10^5 cells/well density and treated with albumin (PBS solution, pH 7.4) or empty liposomes (0.9% NaCl solution, pH 7.4), compounds encapsulated with albumin (PBS solution, pH 7.4) or liposomes LP-1, LP-3 and LP-4 (0.9% NaCl solution, pH 7.4) and free compounds 1, 3 and 4 (DMSO solution) at increasing concentrations (0.1 μM, 1.0 μM, 10 μM and 50 μM). IC50 determination for LP-2 and compound 2 was performed testing the following concentrations as well: 0.01 μM, 0.05 μM, 0.5 μM and 5 μM. The cultures were maintained at 37 °C in 5% v/v CO2 for 24, 48 and 72 h. Cell number and viability were evaluated using the Bürker chamber, after treatment with Trypan Blue. IC50 was calculated by GraphPad Prism 6.0 software using the best fitting sigmoid curve.

For series [5] the following is noted: H2O, 20 °C, 24 hrs; cited from earlier work.
Details of series [6]: method as in PMID 25469771, PMID 21050441, PMID 21856155. Conditions: cited from earlier work; for PAMPA: pH 7.4, 5 hours, room temperature; for MR (Membrane Retention): percentage of compound unable to reach the acceptor compartment.

For the molecule `ClC(Cn1ncc2c(Nc3cccc(Br)c3)nc(SCCN3CCOCC3)nc21)c1ccccc1` (stereo not shown) [Compound 2], the “Metabolic Stability” value in series [1] is 96.0%. In series [2], this molecule returned a drug loading of 50%. Besides, the Ki in series [3] is 0.13 µM. For the same molecule, the IC50 in series [4] (24 h, read-out: IC50 24 h) is 12.6 ± 1.6 µM; in series [4] (48 h, read-out: IC50 48 h), 2.66 ± 0.015 µM; in series [4] (72 h, read-out: IC50 72 h), 2.28 ± 0.29 µM.

For the molecule `CC(C)Sc1nc(Nc2cccc(O)c2)c2cnn(CC(Cl)c3ccccc3)c2n1` (stereo not shown) [Compound 4], the “Aqueous Solubility” value in series [5] was 0,90 μg/mL. Also, in series [1], the “Metabolic Stability” value is recorded as 93.5%. The molecule further showed a drug loading in series [2] of 50%. For the same molecule, the Ki in series [3] is 0.01 µM. Moreover, the PAMPA in series [6] is recorded as 4.53 10^−6 cm^2/sec. For the same molecule, the “MR (Membrane Retention)” value in series [6] was 49.6%. Moreover, the IC50 in series [4] (24 h, read-out: IC50 24 h) was determined as 13.6 ± 0.94 µM; in series [4] (48 h, read-out: IC50 48 h) it was 10.1 ± 0.5 µM; in series [4] (72 h, read-out: IC50 72 h) it was 8.63 ± 0.75 µM.

For the molecule `CC(Cn1ncc2c(Nc3cccc(Cl)c3)nc(SCCN3CCOCC3)nc21)c1ccccc1` (stereo not shown) [Compound 3], in series [5], the “Aqueous Solubility” value is 0,22 μg/mL. Besides, the “Metabolic Stability” value in series [1] is 97.9%. The Ki in series [3] was 0.4 µM. Besides, in series [6], the PAMPA is 5.51 10^−6 cm^2/sec. For the same molecule, the “MR (Membrane Retention)” value in series [6] is listed as 48.9%. Further, the IC50 in series [4] (24 h, read-out: IC50 24 h) turned out to be 3.04 ± 0.09 µM; in series [4] (48 h, read-out: IC50 48 h) it was 2.65 ± 0.08 µM; in series [4] (72 h, read-out: IC50 72 h), 1.54 ± 1.07 µM.

On to `CSc1nc(NCc2ccccc2)c2cnn(CC(Cl)c3ccccc3)c2n1` (stereo not shown) [Compound 1], for which the “Aqueous Solubility” value in series [5] is 0,21 μg/mL. Besides, in series [1], the “Metabolic Stability” value is 95.8%. Besides, in series [2], the drug loading result is reported as “around 6%”. Moreover, the PAMPA in series [6] is recorded as 3.98 10^−6 cm^2/sec. For the same molecule, the “MR (Membrane Retention)” value in series [6] is given as 46.8%. For the same molecule, the IC50 stood at 21.8 ± 1.7 µM in series [4] (24 h, read-out: IC50 24 h); 16.5 ± 1.67 µM in series [4] (48 h, read-out: IC50 48 h); 13.5 ± 2 µM in series [4] (72 h, read-out: IC50 72 h).

(Values after paper PMC4761914, “Improvement of pyrazolo[3,4-d]pyrimidines pharmacokinetic properties: nanosystem approaches for drug delivery” (Scientific Reports, 2016).)
